Results: the NIST ThermoML archive (doi:10.1016/j.jct.2016.09.031)
Numbers after ± are expanded uncertainties.

Key:
[1] = molar heat capacity at constant pressure; mn = molality of the nth substance listed, in mol/kg; conditions: 298.15 K, 100 kPa, Liquid, Flow calorimetry
[2] = molar heat capacity at constant pressure; conditions: 298.15 K; 101.33 kPa; Liquid; Flow calorimetry

## [Cl-].[Rb+] [rubidium chloride] + O
[1]; m1 = 0.4938
  molar heat capacity at constant pressure: 73.89 ± 1.5 J/K/mol
[1]; m1 = 0.8703
  molar heat capacity at constant pressure: 73.2 ± 1.5 J/K/mol
[1]; m1 = 1.515
  molar heat capacity at constant pressure: 71.66 ± 1.4 J/K/mol
[1]; m1 = 2.41
  molar heat capacity at constant pressure: 69.91 ± 1.4 J/K/mol
[1]; m1 = 3.388
  molar heat capacity at constant pressure: 68.46 ± 1.4 J/K/mol
[1]; m1 = 4.213
  molar heat capacity at constant pressure: 67.56 ± 1.4 J/K/mol
[1]; m1 = 4.888
  molar heat capacity at constant pressure: 67.01 ± 1.3 J/K/mol
[1]; m1 = 5.84
  molar heat capacity at constant pressure: 66.18 ± 1.3 J/K/mol

## O [water] + [Cl-].[Cs+]
[1]; m2 = 0
  molar heat capacity at constant pressure: 75.11 ± 1.5 J/K/mol

## O [water]
[2]
  molar heat capacity at constant pressure: 75.11 ± 1.5 J/K/mol

## O [water] + [Cl-].[Rb+]
[1]; m2 = 0
  molar heat capacity at constant pressure: 75.11 ± 1.5 J/K/mol

## [Cl-].[Cs+] [cesium chloride] + O
[1]; m1 = 0.2644
  molar heat capacity at constant pressure: 74.19 ± 1.5 J/K/mol
[1]; m1 = 0.5336
  molar heat capacity at constant pressure: 73.52 ± 1.5 J/K/mol
[1]; m1 = 1.066
  molar heat capacity at constant pressure: 72.48 ± 1.5 J/K/mol
[1]; m1 = 2.018
  molar heat capacity at constant pressure: 70.13 ± 1.4 J/K/mol
[1]; m1 = 3.02
  molar heat capacity at constant pressure: 68.3 ± 1.4 J/K/mol
[1]; m1 = 3.877
  molar heat capacity at constant pressure: 67.71 ± 1.4 J/K/mol
[1]; m1 = 5.674
  molar heat capacity at constant pressure: 66.01 ± 1.3 J/K/mol
[1]; m1 = 6.822
  molar heat capacity at constant pressure: 65.63 ± 1.3 J/K/mol

## [Cl-].[Na+] [sodium chloride] + O
[1]; m1 = 2.05
  molar heat capacity at constant pressure: 72.32 ± 1.5 J/K/mol
